From publication PMC6635827 (Drug Design, Development and Therapy, 2019)
Where two headings read alike, the source gives them in different places. Each block holds one compound with its values, some of them ahead of it.

Experiments:
mushroom tyrosinase [1] = biological target: T1, mushroom tyrosinase (Agaricus bisporus, UniProt C7FF04); assay: Mushroom tyrosinase inhibition assay; format: biochemical; conditions: for inhibition at 30 µM: read-out: percent inhibition
tyrosinase = assay: Tyrosinase zymography; format: biochemical, mushroom; conditions: L-DOPA staining, compared to untreated control
mushroom tyrosinase [2] = biological target: T1, mushroom tyrosinase; conditions: cited from earlier work

T1 sequence (C7FF04 1-392): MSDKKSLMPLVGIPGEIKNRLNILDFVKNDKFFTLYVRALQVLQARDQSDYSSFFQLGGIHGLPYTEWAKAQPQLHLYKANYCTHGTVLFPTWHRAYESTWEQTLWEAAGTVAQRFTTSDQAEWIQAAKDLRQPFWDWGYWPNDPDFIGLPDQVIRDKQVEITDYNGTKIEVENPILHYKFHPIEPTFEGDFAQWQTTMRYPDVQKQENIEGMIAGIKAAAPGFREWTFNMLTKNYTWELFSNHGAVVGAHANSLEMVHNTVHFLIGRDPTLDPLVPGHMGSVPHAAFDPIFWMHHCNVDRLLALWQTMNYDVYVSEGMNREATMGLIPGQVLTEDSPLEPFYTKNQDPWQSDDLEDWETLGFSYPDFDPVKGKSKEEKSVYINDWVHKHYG

- inhibition at 30 µM (mushroom tyrosinase [1]): 55.1%
Structure (SMILES): COc1ccc(N=Nc2c(N)nc(N)nc2Cl)cc1 [Compound 1e, 6-chloro-5-((4-methoxyphenyl)diazenyl) pyrimidine-2,4-diamine]

- band intensity on zymogram (inhibitory effect on tyrosinase activity) (tyrosinase): lightest bands
Structure (SMILES): Nc1nc(N)c(N=Nc2ccccc2[N+](=O)[O-])c(Cl)n1 [Compound 1a, 6-chloro-5-((2-nitrophenyl)diazenyl) pyrimidine-2,4-diamine]

- IC50 (mushroom tyrosinase [1]): 24.5 µM
- band intensity on zymogram (inhibitory effect on tyrosinase activity) (tyrosinase): lightest bands
Structure (SMILES): CC(=O)Nc1ccc(N=Nc2c(N)nc(N)nc2Cl)cc1 [Compound 1d, N-(4-((2,4-diamino-6-chloropyrimidin-5-yl)diazenyl)phenyl) acetamide]

- inhibition at 30 µM (mushroom tyrosinase [1]): 23.7%
Structure (SMILES): Nc1nc(N)c(N=Nc2ccc([N+](=O)[O-])cc2)c(Cl)n1 [Compound 1b, 6-chloro-5-((4-nitrophenyl)diazenyl) pyrimidine-2,4-diamine]

Structure (SMILES): Cc1cc(=O)[nH]c(=S)[nH]1 [methylthiouracil]
- IC50 (mushroom tyrosinase [2]): 142 µM
- Inhibition type (mushroom tyrosinase [2]): noncompetitive inhibitors

- band intensity on zymogram (inhibitory effect on tyrosinase activity) (tyrosinase): minimal inhibitory effect
Structure (SMILES): COc1ccc(N=Nc2c(N)nc(N)nc2N)cc1 [Compound 2d, 5-((4-methoxyphenyl)diazenyl) pyrimidine-2,4,6-triamine]

Structure (SMILES): O=c1cc[nH]c(=S)[nH]1 [thiouracil]
- IC50 (mushroom tyrosinase [2]): 128 µM
- Inhibition type (mushroom tyrosinase [2]): noncompetitive inhibitors
